Key:
UACC-62 [1] = assay: Growth inhibition of human UACC62 cells assessed as cell growth at 0.1 uM incubated for 48 hrs by sulforhodamine B assay relative to control; assay type: functional; conditions: UACC-62, 48 h, read-out: Activity
HOP-62 = assay: Growth inhibition of human HOP62 cells assessed as cell growth at 100 uM incubated for 48 hrs by sulforhodamine B assay relative to control; assay type: functional; conditions: HOP-62, 48 h, read-out: Activity
OVCAR-8 = assay: Growth inhibition of human OVCAR8 cells assessed as cell growth at 0.01 uM incubated for 48 hrs by sulforhodamine B assay relative to control; assay type: functional; conditions: OVCAR-8, 48 h, read-out: Activity
UO-31 [2] = assay: Growth inhibition of human UO31 cells assessed as cell growth at 1 uM incubated for 48 hrs by sulforhodamine B assay relative to control; assay type: functional; conditions: UO-31, 48 h, read-out: Activity
BT-549 = assay: Growth inhibition of human BT549 cells assessed as cell growth at 0.1 uM incubated for 48 hrs by sulforhodamine B assay relative to control; assay type: functional; conditions: BT-549, 48 h, read-out: Activity
UACC-257 = assay: Growth inhibition of human UACC257 cells assessed as cell growth at 100 uM incubated for 48 hrs by sulforhodamine B assay relative to control; assay type: functional; conditions: UACC-257, 48 h, read-out: Activity
NCI-H522 = assay: Growth inhibition of human NCI-H522 cells incubated for 48 hrs by sulforhodamine B assay; assay type: functional, cell-based; conditions: NCI-H522, 48 h
Hs-578T = assay: Growth inhibition of human Hs578T cells assessed as cell growth at 0.01 uM incubated for 48 hrs by sulforhodamine B assay relative to control; assay type: functional; conditions: read-out: Activity
Malme-3M = assay: Growth inhibition of human MALME-3M cells incubated for 48 hrs by sulforhodamine B assay; assay type: functional, cell-based
MOLT-4 = assay: Growth inhibition of human MOLT4 cells assessed as cell growth at 0.01 uM incubated for 48 hrs by sulforhodamine B assay relative to control; assay type: functional; conditions: MOLT-4, 48 h, read-out: Activity
K562 [3] = assay: Growth inhibition of human K562 cells assessed as cell growth at 0.1 uM incubated for 48 hrs by sulforhodamine B assay relative to control; assay type: functional; conditions: K562, 48 h, read-out: Activity
MDA-MB-231 = assay: Growth inhibition of human MDA-MB-231 cells assessed as cell growth at 1 uM incubated for 48 hrs by sulforhodamine B assay relative to control; assay type: functional; conditions: MDA-MB-231, 48 h, read-out: Activity
UACC-62 [4] = assay: Growth inhibition of human UACC62 cells assessed as cell growth at 0.01 uM incubated for 48 hrs by sulforhodamine B assay relative to control; assay type: functional; conditions: UACC-62, 48 h, read-out: Activity
UO-31 [5] = assay: Growth inhibition of human UO31 cells incubated for 48 hrs by sulforhodamine B assay; assay type: functional, cell-based; conditions: UO-31, 48 h
RXF 393 [6] = assay: Growth inhibition of human RXF393 cells assessed as cell growth at 0.01 uM incubated for 48 hrs by sulforhodamine B assay relative to control; assay type: functional; conditions: RXF 393, 48 h, read-out: Activity
NCI/ADR-RES = assay: Growth inhibition of human NCI/ADR-RES cells incubated for 48 hrs by sulforhodamine B assay; assay type: functional, cell-based
RXF 393 [7] = assay: Growth inhibition of human RXF393 cells incubated for 48 hrs by sulforhodamine B assay; assay type: functional, cell-based; conditions: RXF 393, 48 h
LOX IMVI = assay: Growth inhibition of human LOXIMVI cells assessed as cell growth at 100 uM incubated for 48 hrs by sulforhodamine B assay relative to control; assay type: functional; conditions: read-out: Activity
HL-60(TB) = assay: Growth inhibition of human HL-60(TB) cells assessed as cell growth at 0.1 uM incubated for 48 hrs by sulforhodamine B assay relative to control; assay type: functional; conditions: HL-60, 48 h, read-out: Activity
RXF 393 [8] = assay: Growth inhibition of human RXF393 cells assessed as cell growth at 100 uM incubated for 48 hrs by sulforhodamine B assay relative to control; assay type: functional; conditions: RXF 393, 48 h, read-out: Activity
786-0 = assay: Growth inhibition of human 786-0 cells assessed as cell growth at 0.1 uM incubated for 48 hrs by sulforhodamine B assay relative to control; assay type: functional; conditions: 786-0, 48 h, read-out: Activity
K562 [9] = assay: Growth inhibition of human K562 cells assessed as cell growth at 100 uM incubated for 48 hrs by sulforhodamine B assay relative to control; assay type: functional; conditions: K562, 48 h, read-out: Activity
SN12C = assay: Growth inhibition of human SN12C cells assessed as cell growth at 1 uM incubated for 48 hrs by sulforhodamine B assay relative to control; assay type: functional; conditions: read-out: Activity
SK-OV-3 = assay: Growth inhibition of human SKOV3 cells assessed as cell growth at 100 uM incubated for 48 hrs by sulforhodamine B assay relative to control; assay type: functional; conditions: SK-OV-3, 48 h, read-out: Activity
ACHN = assay: Growth inhibition of human ACHN cells incubated for 48 hrs by sulforhodamine B assay; assay type: functional, cell-based
NCI-H322M = assay: Growth inhibition of human NCI-H322M cells incubated for 48 hrs by sulforhodamine B assay; assay type: functional, cell-based
SK-MEL-28 = assay: Growth inhibition of human SK-MEL-28 cells assessed as cell growth at 0.01 uM incubated for 48 hrs by sulforhodamine B assay relative to control; assay type: functional; conditions: SK-MEL-28, 48 h, read-out: Activity
SW-620 = assay: Growth inhibition of human SW620 cells assessed as cell growth at 100 uM incubated for 48 hrs by sulforhodamine B assay relative to control; assay type: functional; conditions: SW-620, 48 h, read-out: Activity
HCT-15 = assay: Growth inhibition of human HCT15 cells assessed as cell growth at 0.1 uM incubated for 48 hrs by sulforhodamine B assay relative to control; assay type: functional; conditions: HCT-15, 48 h, read-out: Activity
HT-29 = assay: Growth inhibition of human HT-29 cells assessed as cell growth at 10 uM incubated for 48 hrs by sulforhodamine B assay relative to control; assay type: functional; conditions: HT-29, 48 h, read-out: Activity
[10] = read-out: LC50 (the source's name)
[11] = read-out: pLC50 (the source's name) (converted)

For COc1cc(Cl)cc(-c2nn(-c3cccc(NC(=O)c4ccc(N5CCOCC5)c(C(F)(F)F)c4)c3)cc2-c2ccncc2)c1, the growth at 0.1 µM (UACC-62 [1]) was 91%, the growth at 100 µM (HOP-62) was 45% and the growth at 0.01 µM (OVCAR-8) was 99%. It also gave a growth at 1 µM (UO-31 [2]) of 52%, a growth at 0.1 µM (BT-549) of 100% and a growth at 100 µM (UACC-257) of -18%. It also gave a GI50 (NCI-H522; read-out: GI50) of 4.72 µM, a CC50 (NCI-H522; [10]) of over 100 µM and a TGI (NCI-H522; read-out: TGI) of over 100 µM. The GI50 (NCI-H522; read-out: pGI50 (converted)) was 4.68 µM, the CC50 (NCI-H522; [11]) was over 100 µM and the TGI (NCI-H522; read-out: pTGI (converted)) was over 100 µM. For the same molecule, the growth at 0.01 µM (Hs-578T) was 92%, the GI50 (Malme-3M; read-out: GI50) was 2.53 µM and the CC50 (Malme-3M; [10]) was over 100 µM. It also gave a TGI (Malme-3M; read-out: TGI) of over 100 µM, a GI50 (Malme-3M; read-out: pGI50 (converted)) of 28.2 µM and a CC50 (Malme-3M; [11]) of over 100 µM. The TGI (Malme-3M; read-out: pTGI (converted)) was over 100 µM, the growth at 0.01 µM (MOLT-4) was 100% and the growth at 0.1 µM (K562 [3]) was 95%. For the same molecule, the growth at 1 µM (MDA-MB-231) was 78%, the growth at 0.01 µM (UACC-62 [4]) was 95% and the IC50 (UO-31 [5]) was 4.5 µM. The GI50 (UO-31 [5]; read-out: GI50) was 4.5 µM, the CC50 (UO-31 [5]; [10]) was over 100 µM and the TGI (UO-31 [5]; read-out: TGI) was over 100 µM. For the same molecule, the GI50 (UO-31 [5]; read-out: pGI50 (converted)) was 4.47 µM, the CC50 (UO-31 [5]; [11]) was over 100 µM and the TGI (UO-31 [5]; read-out: pTGI (converted)) was over 100 µM. It also gave a growth at 0.01 µM (RXF 393 [6]) of 97%, a GI50 (NCI/ADR-RES; read-out: GI50) of 5.17 µM and a CC50 (NCI/ADR-RES; [10]) of over 100 µM. The TGI (NCI/ADR-RES; read-out: TGI) was over 100 µM, the GI50 (NCI/ADR-RES; read-out: pGI50 (converted)) was 6.17 µM and the CC50 (NCI/ADR-RES; [11]) was over 100 µM. It also gave a TGI (NCI/ADR-RES; read-out: pTGI (converted)) of over 100 µM, an LC50 (RXF 393 [7]) of over 100 µM and a GI50 (RXF 393 [7]; read-out: GI50) of 830 nM. For the same molecule, the TGI (RXF 393 [7]; read-out: TGI) was 23.9 µM, the GI50 (RXF 393 [7]; read-out: pGI50 (converted)) was 813 nM and the TGI (RXF 393 [7]; read-out: pTGI (converted)) was 24 µM. It also gave a growth at 100 µM (LOX IMVI) of 25%, a growth at 0.1 µM (HL-60(TB)) of 91% and a growth at 100 µM (RXF 393 [8]) of -10%. The growth at 0.1 µM (786-0) was 95%, the growth at 100 µM (K562 [9]) was 2% and the growth at 1 µM (SN12C) was 89%. The growth at 100 µM (SK-OV-3) was 70%, the GI50 (ACHN; read-out: GI50) was 7.31 µM and the CC50 (ACHN; [10]) was over 100 µM. For the same molecule, the TGI (ACHN; read-out: TGI) was over 100 µM, the GI50 (ACHN; read-out: pGI50 (converted)) was 7.24 µM and the CC50 (ACHN; [11]) was over 100 µM. The TGI (ACHN; read-out: pTGI (converted)) was over 100 µM, the GI50 (NCI-H322M; read-out: GI50) was 7.37 µM and the CC50 (NCI-H322M; [10]) was over 100 µM. For the same molecule, the TGI (NCI-H322M; read-out: TGI) was over 100 µM, the GI50 (NCI-H322M; read-out: pGI50 (converted)) was 74.1 µM and the CC50 (NCI-H322M; [11]) was over 100 µM. It also gave a TGI (NCI-H322M; read-out: pTGI (converted)) of over 100 µM, a growth at 0.01 µM (SK-MEL-28) of 97% and a growth at 100 µM (SW-620) of 22%. The growth at 0.1 µM (HCT-15) was 85% and the growth at 10 µM (HT-29) was 21.2%.

From ChEMBL document CHEMBL4308841, “Synthesis, in vitro antiproliferative activity, and kinase inhibitory effects of pyrazole-containing diarylureas and diarylamides” (Eur J Med Chem, 2018)
